# Where a name gives a salt, the structure may show the parent alone. Read-outs that look alike come from different tables or passages of the source.
# Experiments:
# [1] = target: T1, human recombinant GABAA α5β3γ2 receptor (Homo sapiens (Human), UniProt P18507+P31644); test: Functional assay, QPatch automated whole-cell patch clamp, modulation of GABA-evoked current; format: cell-based; conditions: read-out: hGABAA α5 efficacy (percentage modulation of GABA-evoked peak current)
# Description: Human HEK293 cell lines expressing GABAAα5β3γ2 receptors were used in functional assays using the QPatch automated patch clamp system.
# HEK293 cell lines stably expressing human recombinant GABAA α5β3γ2 receptor subunits (Millipore, CYL3053) were cultured in DMEM supplemented with 10% FBS (Gibco), passed two times per week and plated on Petri dishes previously coated with poly-d-lysine.
# Automated whole-cell patch clamp recordings were made from cells 2-4 days after plating.
# Inward currents were evoked at a holding potential of −80 mV by 3-s-long applications of the control agonist GABA at 1 μM at 2-4-min intervals first in concentration-matched DMSO (0.1 or 0.3%) control solution for five times, then in the presence of the test compound for four times, finally in control solution again for three times (wash-out). At the end of the experiment 100 μM GABA was applied to saturate the GABA-response and to assess the efficacy of the control GABA application. Current signals were low-pass filtered at 100 Hz and recorded at a sampling rate of 1 kHz.
# The percentage modulation was calculated from the comparison of GABA-evoked peak current amplitudes in the presence and absence of the test compound.
# [2] = target: T1, human recombinant GABAA α5β3γ2 receptor; test: Binding assay, [3H]Ro151788 displacement on HEK cell membranes; conditions: [3H]Ro151788 0.5 nM, 60 minutes at 4° C., Cheng-Prusoff; read-out: hGABAA α5 Ki
# Description: The GABAA α5β3γ2 protein used for the receptor binding assay was derived from membranes produced from HEK cells (Millipore CYL3073) expressing the human recombinant GABAA α5β3γ2 receptor. Cells were stored and cultured in-house according to the instructions provided by the vendor (Millipore). Cell pellet was homogenized in 10 times modified Krebs Henseleit buffer (membrane preparation buffer): 20 mM Tris, 120 mM NaCl, 100 mM KCl, 25 mM CaCl2 and 25 mM MgCl2 pH=7.4 at 4° C. using Ultra Turrax (Janke&Kunkel) maximal speed for 15 seconds. The homogenate was centrifuged at 40,000 g for 30 minutes at 4° C. Supernatant was discarded and the resulting pellet was washed in membrane preparation buffer. Pellet was resuspended in membrane preparation buffer and aliquots of 1.4 mL ampules were stored at −70° C. until use.
# Receptor binding assays were performed in 96-well format in deep-well plates. For each 96-well plate one ampule of membrane homogenate was thawed and diluted in binding buffer (50 mM Tris pH=7.4, 100 mM KCl) and 200 μL was dispensed into each well. Radioligand [^3H]Ro151788 (Perkin Elmer: NET757250UC) was prepared in binding buffer and added to each well in 50 μL volume to give final concentration of 0.5 nM. Test compounds in suitable concentration(s) were added in additional 50 μL. The final assay volume was 300 μL. Incubation was carried out for 60 minutes at 4° C. For non-specific binding 10 μM unlabeled diazepam was used. […] The plate was dried at 40° C. for an hour and 40 μL Microscint (Perkin Elmer) scintillation cocktail was added to each well. The plate was read in Microbeta (Perkin Elmer).
# The specific radioligand binding (SB) was defined as the difference between total binding (Tot) and the non-specific binding (NSB). Results are expressed as a percent inhibition of specific binding obtained in the presence of compound of interest.
# For IC50 and Ki determination a minimum of six drug concentrations in triplicate were used. […] Ki values (i.e., inhibition constants) were calculated using the Cheng-Prusoff equation Ki=IC5O/[1+(L/KD)], where [L] is the radioligand concentration and KD the affinity of the labelled ligand for receptor. KD was determined from the Saturation analyses.
# [3] = test compound 1 μM, GABA 1 μM, holding potential −80 mV
# T1 sequence (P31644 32-462): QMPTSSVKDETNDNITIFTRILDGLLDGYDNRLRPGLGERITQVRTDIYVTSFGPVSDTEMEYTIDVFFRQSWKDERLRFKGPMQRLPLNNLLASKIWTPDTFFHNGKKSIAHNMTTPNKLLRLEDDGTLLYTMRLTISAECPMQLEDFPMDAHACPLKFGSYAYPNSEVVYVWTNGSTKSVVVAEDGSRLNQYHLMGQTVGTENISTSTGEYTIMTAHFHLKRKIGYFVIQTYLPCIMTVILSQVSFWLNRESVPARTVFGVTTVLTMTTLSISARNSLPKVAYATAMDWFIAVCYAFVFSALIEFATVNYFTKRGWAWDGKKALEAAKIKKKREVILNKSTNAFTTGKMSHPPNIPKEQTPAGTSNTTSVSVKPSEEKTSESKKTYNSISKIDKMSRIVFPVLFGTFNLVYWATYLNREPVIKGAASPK
# T1 sequence (P28472 26-473 partner): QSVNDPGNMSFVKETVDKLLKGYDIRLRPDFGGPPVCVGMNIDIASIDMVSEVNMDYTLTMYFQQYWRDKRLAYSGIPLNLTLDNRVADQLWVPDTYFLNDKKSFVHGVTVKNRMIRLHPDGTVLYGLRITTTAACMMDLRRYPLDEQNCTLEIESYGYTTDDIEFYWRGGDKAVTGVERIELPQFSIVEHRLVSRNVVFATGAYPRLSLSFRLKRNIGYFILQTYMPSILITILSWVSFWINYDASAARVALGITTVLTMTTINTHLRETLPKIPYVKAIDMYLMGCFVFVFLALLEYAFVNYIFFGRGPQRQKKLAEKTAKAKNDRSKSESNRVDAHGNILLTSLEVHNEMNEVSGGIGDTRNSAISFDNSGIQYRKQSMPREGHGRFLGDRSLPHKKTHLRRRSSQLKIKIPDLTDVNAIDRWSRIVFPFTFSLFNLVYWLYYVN
# T1 sequence (P18507 40-475): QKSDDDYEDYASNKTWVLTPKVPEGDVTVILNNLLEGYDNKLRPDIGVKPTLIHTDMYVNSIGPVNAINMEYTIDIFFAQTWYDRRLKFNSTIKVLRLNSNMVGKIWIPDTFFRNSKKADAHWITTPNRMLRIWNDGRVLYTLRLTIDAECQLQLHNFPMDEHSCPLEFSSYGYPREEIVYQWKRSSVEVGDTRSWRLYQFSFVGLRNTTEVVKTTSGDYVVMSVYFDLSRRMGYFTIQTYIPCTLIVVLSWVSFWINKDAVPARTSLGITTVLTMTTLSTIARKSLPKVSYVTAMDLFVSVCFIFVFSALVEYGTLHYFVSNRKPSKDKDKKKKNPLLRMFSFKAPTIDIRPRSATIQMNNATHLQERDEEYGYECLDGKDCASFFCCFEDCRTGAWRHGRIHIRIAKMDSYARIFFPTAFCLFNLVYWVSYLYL
Compound,"activation at 1 µM [1, 3] [%]",Ki [2] [nM],activation at 1 µM [1] [%]
"Cc1ccc(-n2nnc(C)c2COc2cc3c(cn2)CN(C2CCOCC2)CC3)cn1 [Example 33, 6-{[4-methyl-1-(6-methylpyridin-3-yl)-1H-1,2,3-triazol-5-yl]methoxy}-2-(oxan-4-yl)-1,2,3,4-tetrahydro-2,7-naphthyridine]",71,29.5,
"Cc1ccc(-c2noc(C)c2COc2cc3c(cn2)CN(c2ccccn2)CC3)cn1 [Example 13, 6-{[5-methyl-3-(6-methylpyridin-3-yl)-1,2-oxazol-4-yl]methoxy}-2-(pyridin-2-yl)-1,2,3,4-tetrahydro-2,7-naphthyridine]",129,6.6,
"Cc1onc(-c2ccc(C(F)(F)F)nc2)c1COc1cc2c(cn1)CNCC2 [Example 2, 6-({5-methyl-3-[6-(trifluoromethyl)pyridin-3-yl]-1,2-oxazol-4-yl}methoxy)-1,2,3,4-tetrahydro-2,7-naphthyridine trifluoroacetic acid salt]",,37,100
"Cc1ccc(-n2nnc(C)c2COc2cc3c(nn2)CN(C2CCC2)CC3)cn1 [Example 46, 5-{5-[({7-cyclobutyl-5H,6H,7H,8H-pyrido[3,4-c]pyridazin-3-yl}oxy)methyl]-4-methyl-1H-1,2,3-triazol-1-yl}-2-methylpyridine tartarate salt]",,61.5,76
"Cc1nnn(-c2ccc(C(F)(F)F)nc2)c1COc1cc2c(cn1)CNCC2 [Example 25, 6-({4-methyl-1-[6-(trifluoromethyl)pyridin-3-yl]-1H-1,2,3-triazol-5-yl}methoxy)-1,2,3,4-tetrahydro-2,7-naphthyridine]",73,128,
"COc1ccc(-n2nnc(C)c2COc2cc3c(cn2)CNCC3)cn1 [Example 34, 6-{[1-(6-methoxypyridin-3-yl)-4-methyl-1H-1,2,3-triazol-5-yl]methoxy}-1,2,3,4-tetrahydro-2,7-naphthyridine]",62,51.6,
"Cc1ccc(-c2noc(C)c2COc2cc3c(nn2)CNCC3)cn1 [Example 14, 2-methyl-5-[5-methyl-4-({5H,6H,7H,8H-pyrido[3,4-c]pyridazin-3-yloxy}methyl)-1,2-oxazol-3-yl]pyridine]",126,3.2,
"Cc1ccc(-n2nnc(C)c2COc2cc3c(cn2)CN(C2COC2)CC3)cn1 [Example 31, 6-{[4-methyl-1-(6-methylpyridin-3-yl)-1H-1,2,3-triazol-5-yl]methoxy}-2-(oxetan-3-yl)-1,2,3,4-tetrahydro-2,7-naphthyridine]",115,36,
"Cc1ccc(-n2nnc(C)c2COc2cc3c(cn2)CN(C(C)C)CC3)cn1 [Example 22, 6-{[4-methyl-1-(6-methylpyridin-3-yl)-1H-1,2,3-triazol-5-yl]methoxyl}-2-(propan-2-yl)-1,2,3,4-tetrahydro-2,7-naphthyridine]",68,22.7,
"Cc1ccc(-n2nnc(C)c2COc2cc3c(cn2)CN(C2CCOC2)CC3)cn1 (racemic) [Example 29, 6-{[4-methyl-1-(6-methylpyridin-3-yl)-1H-1,2,3-triazol-5-yl]methoxy}-2-(oxolan-3-yl)-1,2,3,4-tetrahydro-2,7-naphthyridine]",102,29.7,
"Cc1ccc(-c2noc(C)c2COc2cc3c(cn2)CN(C2COC2)CC3)cn1 [Example 10, 6-{[5-methyl-3-(6-methylpyridin-3-yl)-1,2-oxazol-4-yl]methoxy}-2-(oxetan-3-yl)-1,2,3,4-tetrahydro-2,7-naphthyridine]",131,4.5,
"COc1ccc(-n2nnc(C)c2COc2cc3c(cn2)CN(C2CCOCC2)CC3)cn1 [Example 40, 6-{[1-(6-methoxypyridin-3-yl)-4-methyl-1H-1,2,3-triazol-5-yl]methoxy}-2-(oxan-4-yl)-1,2,3,4-tetrahydro-2,7-naphthyridine heminapadisylate salt]",86,,
"CCC1(N2CCc3cc(OCc4c(C)nnn4-c4ccc(C)nc4)ncc3C2)COC1 [Example 43, 2-(3-ethyloxetan-3-yl)-6-{[4-methyl-1-(6-methylpyridin-3-yl)-1H-1,2,3-triazol-5-yl]methoxy}-1,2,3,4-tetrahydro-2,7-naphthyridine napadisylate salt]",85,,
"Cc1onc(-c2ccc(C(F)(F)F)nc2)c1COc1cc2c(cn1)CN(C1CCOC1)CC2 (stereo not drawn) [Example 8, 6-({5-methyl-3-[6-(trifluoromethyl)pyridin-3-yl]-1,2-oxazol-4-yl}methoxy)-2-(oxolan-3-yl)-1,2,3,4-tetrahydro-2,7-naphthyridine]",133,11.2,
"Cc1ccc(-c2noc(C)c2COc2cc3c(cn2)CNCC3)cn1 [Example 1, 6-{[5-methyl-3-(6-methylpyridin-3-yl)-1,2-oxazol-4-yl]methoxy}-1,2,3,4-tetrahydro-2,7-naphthyridine trifluoroacetic acid salt]",,3.9,155
"Cc1onc(-c2ccc(C(F)(F)F)nc2)c1COc1cc2c(cn1)CN(C1CCOCC1)CC2 [Example 7, 6-({5-methyl-3-[6-(trifluoromethyl)pyridin-3-yl]-1,2-oxazol-4-yl}methoxy)-2-(oxan-4-yl)-1,2,3,4-tetrahydro-2,7-naphthyridine]",125,29.3,
"Cc1ccc(-n2nnc(C)c2COc2cc3c(nn2)CNCC3)cn1 [Example 44, 2-methyl-5-[4-methyl-5-({5H,6H,7H,8H-pyrido[3,4-c]pyridazin-3-yloxy}methyl)-1H-1,2,3-triazol-1-yl]pyridine]",96,40.4,
"Cc1nnn(-c2ccc(C(F)(F)F)nc2)c1COc1cc2c(cn1)CN(C1CCOC1)CC2 (stereo not drawn) [Example 32, 6-({4-methyl-1-[6-(trifluoromethyl)pyridin-3-yl]-1H-1,2,3-triazol-5-yl}methoxy)-2-(oxolan-3-yl)-1,2,3,4-tetrahydro-2,7-naphthyridine]",155,44.5,
"Cc1ccc(-n2nnc(C)c2COc2cc3c(cn2)CN(C)CC3)cn1 [Example 21, 2-methyl-6-{[4-methyl-1-(6-methylpyridin-3-yl)-1H-1,2,3-triazol-5-yl]methoxy}-1,2,3,4-tetrahydro-2,7-naphthyridine]",134,23,
"Cc1ccc(-n2nnc(C)c2COc2cc3c(cn2)CNCC3)cn1 [Example 20, 6-{[4-methyl-1-(6-methylpyridin-3-yl)-1H-1,2,3-triazol-5-yl]methoxy}-1,2,3,4-tetrahydro-2,7-naphthyridine]",111,26.5,
"Cc1nnn(-c2ccc(C(F)F)nc2)c1COc1cc2c(cn1)CN(C)CC2 [Example 24, 6-({1-[6-(difluoromethyl)pyridin-3-yl]-4-methyl-1H-1,2,3-triazol-5-yl}methoxy)-2-methyl-1,2,3,4-tetrahydro-2,7-naphthyridine]",88,8.3,
"Cc1ccc(-n2nnc(C)c2COc2cc3c(cn2)CN(C2(C(C)C)COC2)CC3)cn1 [Example 42, 6-{[4-methyl-1-(6-methylpyridin-3-yl)-1H-1,2,3-triazol-5-yl]methoxyl}-2-[3-(propan-2-yl)oxetan-3-yl]-1,2,3,4-tetrahydro-2,7-naphthyridine napadisylate salt]",99,,
"Cc1nnn(-c2ccc(C(F)(F)F)nc2)c1COc1cc2c(cn1)CN(c1cccnc1)CC2 [Example 37, 6-({4-methyl-1-[6-(trifluoromethyl)pyridin-3-yl]-1H-1,2,3-triazol-5-yl}methoxy)-2-(pyridin-3-yl)-1,2,3,4-tetrahydro-2,7-naphthyridine napadysilate salt]",53,,
